Reference: patent publication US20150010932A1, “METHODS FOR ASSAYING PROTEIN-PROTEIN INTERACTIONS” (Salk Institute for Biological Studies, priority 2013, published 2015)
“Also recorded” adds a separate entry of the source. Bridges are numbered along the chain shown (N, C = ends). [ ]: non-standard residue; d: D form. Ahx = NCCCCCC(=O)O

Key:
[1] = tested on: Normal human fibroblasts (WS1 cells); assay: Lactate dehydrogenase (LDH) leakage assay, WS1 fibroblasts; format: cell-based; conditions: 25 μM and 10 μM, 6 hours, no serum
Description: (§1) Accumulation of cytoplasmic lactate dehydrogenase (LDH) in the growth medium was used as a metric of cell membrane damage. LDH was detected by the CytoTox 96 Non-Radioactive Cytotoxicity Assay Kit (Promega). The 0.8% Triton X-100 treatment (Lysed) represents the maximum LDH leakage in this experiment and its reading was set to 100%. DMSO treatment served as the vehicle control and provided an indication of the presence of trace amounts of LDH in the serum and spontaneous LDH leakage from cells. The value obtained in the presence of DMSO was set to 0%. Data are shown as mean±SD (n=3). (B) Normal human fibroblasts (WS 1 cells) were treated exactly as in (A). Data are shown as mean±SD (n=3).S
(§2) Saos-2 and WS 1 cells were seeded into 96-well plates (20,000 cells per well) and incubated at 37° C. […] LDH leakage into media was detected by the CytoTox 96 Non-Radioactive Cytotoxicity Assay Kit (Promega G1780) per manufacture's protocol. Assay background was evaluated by using the LDH reading from wells containing only media and PPI antagonists with or without 10% FBS and was subtracted from the values obtained in the presence of the PPI antagonists. Cells lysed by 0.8% Triton X-100 (provided by the Kit), a concentration sufficient to ensure lyse all cells but low enough not to interfere with the LDH assay, represents the maximum LDH leakage in this experiment and its reading is set to 100%. […]

Saos-2 cells = assay: Lactate dehydrogenase (LDH) leakage assay, Saos-2 cells; conditions: 25 μM and 10 μM, 6 hours, no serum
Description: as §1, §2

p53-Mdm4 complexes [2] = biological target: T1, p53-Mdm4 complexes (Homo sapiens, UniProt O15151); assay: Real-time BiLC (ReBiL) assay in living cells, p53-Mdm4 reporter (Saos-2 134-354)
T1 sequence (O15151 2-111): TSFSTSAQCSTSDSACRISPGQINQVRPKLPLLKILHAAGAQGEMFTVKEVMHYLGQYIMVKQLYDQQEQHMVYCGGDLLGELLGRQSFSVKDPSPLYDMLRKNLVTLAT

p53-Mdm2 complexes [3] = biological target: T2, p53-Mdm2 complexes (Homo sapiens, UniProt Q00987); assay: BiLC assay using cell lysates, p53-Mdm2; format: biochemical; conditions: no FBS
T2 construct: cLuc-linker-FLAG-Mdm2-108 (generated); cLuc (C-terminal split firefly luciferase fragment, amino acids 398-550); expressed in transfected cells; host or cells: Saos-2 134-385 (single-copy RMCE integration, doxycycline-induced); the lysate assay text says Saos-2 or U2OS reporter cells
T2 sequence (Q00987 2-108, one chain of several): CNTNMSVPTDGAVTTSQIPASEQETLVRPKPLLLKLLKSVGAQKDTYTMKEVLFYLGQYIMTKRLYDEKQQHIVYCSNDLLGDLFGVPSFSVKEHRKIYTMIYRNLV
Protocol: FIGS. 5A and 5B show a set of graphs illustrating that the BiLC lysate assay can be used to determine if serum prevents SAH peptides from disrupting p53-Mdm2 or p53-Mdm4 complexes. (A) Cell lysates obtained from nLuc-p53 and cLuc-Mdm2 or nLuc-p53 and cLuc-Mdm4 ReBiL expressing reporter cells were incubated with the indicated PPI antagonists in the absence of FBS in a 384-well plate at room temperature for 10 minutes. Steady-Glo luciferase reagent was added, and luminescence was measured in a Tecan M200 luminometer at 26° C. Data are shown as mean±standard deviation (n=3) and normalized to the luminescent reading of DMSO (set to 100%). (B) The BiLC lysate assays were identical to (A) except for the inclusion of 10% FBS. Data are shown as mean±standard deviation (n=3) and normalized to the luminescent reading of DMSO (set to 100%).
(§3) (A) Small molecule PPI antagonists were tested in p53-Mdm2 and p53-Mdm4 BiLC lysate assays without FBS. […] Data are shown as mean±standard deviation (n=3) and normalized to the luminescent reading of DMSO (set to 100%).
The 4× concentrated drugs diluted in DMEM/F12 media were pipetted into 384 well plates, 10 μl per well. […] 20 μl of luciferin reagents were added (Promega Bright-Glo E2620 or Steady-Glo E2520) into each well and luminescence was measured in a Tecan M200: integration time 0.5 seconds, 3˜5 minutes per cycle for total 30 minutes at 26° C.

p53-Mdm4 complexes [4] = biological target: T1, p53-Mdm4 complexes; assay: BiLC assay using cell lysates, p53-Mdm4; format: biochemical; design: 2-111) was cloned into pLi317; cLuc (C-terminal split firefly luciferase fragment, amino acids 398-550; expressed in transfected cells; host or cells: Saos-2 134-354 (single-copy RMCE integration, doxycycline-induced); the lysate assay text says Saos-2 or U2OS reporter cells; conditions: no FBS
Protocol: (A) Cell lysates obtained from nLuc-p53 and cLuc-Mdm2 or nLuc-p53 and cLuc-Mdm4 ReBiL expressing reporter cells were incubated with the indicated PPI antagonists in the absence of FBS in a 384-well plate at room temperature for 10 minutes. Steady-Glo luciferase reagent was added, and luminescence was measured in a Tecan M200 luminometer at 26° C. Data are shown as mean±standard deviation (n=3) and normalized to the luminescent reading of DMSO (set to 100%). (B) The BiLC lysate assays were identical to (A) except for the inclusion of 10% FBS. Data are shown as mean±standard deviation (n=3) and normalized to the luminescent reading of DMSO (set to 100%).
as §3
The 4× concentrated drugs diluted in DMEM/F12 media were pipetted into 384 well plates, 10 μl per well. Cells were washed with PBS-twice and lysed with PLB buffer (100 mM Tris-HCl pH 7.5; 0.5 mM EDTA; 150 mM NaCl; 0.1% Triton X-100, 1 mM sodium orthovanadate, 50 mM sodium fluoride, and Roche Complete Mini Protease Inhibitor Cocktail). […] The clear lysates were collected, diluted with DMEM (˜300 μl DMEM added into 100 μl lysates); 10 μl of diluted lysates were pipetted into each of the 384-wells, and the plates were incubated at room temperature for 10 minutes. 20 μl of luciferin reagents were added (Promega Bright-Glo E2620 or Steady-Glo E2520) into each well and luminescence was measured in a Tecan M200: integration time 0.5 seconds, 3˜5 minutes per cycle for total 30 minutes at 26° C.

p53-Mdm2 complexes [5] = biological target: T2, p53-Mdm2 complexes; assay: Real-time BiLC (ReBiL) assay in living cells, p53-Mdm2 reporter (Saos-2 134-385); format: cell-based
Protocol: Data shown are mean±standard deviation (n=8). […] Actin was used as a loading control. […] Luminescent signals were measured every 10 minutes for 10 hours in a Tecan-M200 at 37° C. Data shown are mean±standard deviation (n=4). […] The nLuc-p53 and cLuc-Mdm2 fusion proteins were detected by anti-FLAG and anti-HA antibodies, respectively, and Actin was used as a loading control.
At Time=0, the cells were washed with Dulbecco's modified Eagle medium (DMEM) once, and treated with new media containing different PPI antagonists and with or without 10% fetal bovine serum (FBS).
Two strategies were used to avert cytotoxicity or cell cycle arrest that could be generated by wild type p53 activation. First, p53 null Saos-2 cells were used as the host cell line for ReBiL reporters.
The Saos-2 ReBiL reporter cells were washed, trypsinized and cell numbers were determined. […] Supernatants were discarded, ReBiL reporter cells were resuspended with DMEM/F12 (phenol-red free) and 20 μl cells were pipetted into each well. […]
(a) The following protocol was used to evaluate small molecule PPI antagonists. […] The next day, the cells were washed, trypsinized, and cell numbers were determined. […] The plate was sealed with a MicroAmp Optical Adhesive Film, and luminescence was measured in a Tecan M200: integration time 2 seconds, 5˜10 minutes per cycle for total 6 hours at 37° C.

[6] = biological target: T3, Mdm2-Mdm4 N-terminal BiLC pair (Homo sapiens, UniProt O15151+Q00987); assay: Real-time BiLC assay in U2OS Mdm4-111/Mdm2-108 ReBiL reporter cells (U2OS 134-544); format: cell-based; conditions: U2OS 134-544 cells, compound with doxycycline at Time=0, 24 hours
T3 construct: linker-FLAG-Mdm2-108 (generated by; 2-111) was cloned into pLi223; cLuc (split firefly luciferase amino acids 398-550); nLuc (split firefly luciferase amino acids 1-416); expressed in transfected cells; host or cells: U2OS 134-544 (RMCE integration, doxycycline-induced)
T3 sequence (Q00987 2-108, one chain of several): as above
Description: Data are shown as mean±standard deviation (n=6). […] Data are shown as mean±standard deviation (n=4).

[7] = living Saos-2 cells, doxycycline withdrawal, small molecule protocol

Row | Compound | LDH leakage (cell membrane damage), absence of serum (Saos-2 cells) | p53-Mdm2 disruption in lysate BiLC assay, without FBS (p53-Mdm2 complexes [3]) | p53-Mdm4 disruption in lysate BiLC assay, without FBS (p53-Mdm4 complexes [4]) | further results
1 | COc1ccc(C2=N[C@@H](c3ccc(Cl)cc3)[C@@H](c3ccc(Cl)cc3)N2C(=O)N2CCNC(=O)C2)c(OC(C)C)c1 [Nutlin-3a] | failed to induce membrane leakage |  |  | LDH leakage (cell membrane damage), absence of serum [1]: failed to induce membrane leakage
2 | CCOc1cc(/C=C2/C(=O)N(c3ccccc3)N=C2C)cc(Cl)c1OCC(=O)OC [SJ-172550] |  | no activity | no activity; also recorded: poor p53/Mdm4 antagonist | p53-Mdm4 BiLC signal (newly synthesized complexes) (p53-Mdm4 complexes [2]; living Saos-2 134-354 cells, compound added with doxycycline at Time=0, 10% FBS): No decrease in p53-Mdm4 luciferase signal was detected; also recorded: virtually no activity
3 | MI-219 |  |  |  | Ability to interfere selectively with p53-Mdm2 interaction (p53-Mdm2 complexes [5]; ReBiL strategy): interfere selectively with p53-Mdm2 interaction was confirmed
4 | RO-5963 |  | no activity | no activity | Disruption of pre-formed p53-Mdm4 BiLC complexes (p53-Mdm4 complexes [2]; [7]): did not efficiently disrupt; Disruption of pre-formed p53-Mdm2 BiLC complexes (p53-Mdm2 complexes [5]; [7]): did not efficiently disrupt; Mdm2-Mdm4 N-terminal domain association (luminescent signal) [6]: increased luminescent signals were detected
5 | cyclo(ACICRGNGYCG[Ahx]TSFAEYWNLLSGVCPKILQRCRRDSDCPG) (disulfide 2-26, 4-33, 10-39) [McoTi-1-PMI] | all except one (McoTi-1-PMI), damage cell membranes |  |  | 
